For this experiment, the target named is T1, FLuc-C-HiBiT (Photinus pyralis, UniProt P08659).
T1 construct: firefly luciferase with C-terminal HiBiT tag, E. coli expressed
T1 sequence (P08659 whole entry, looked up): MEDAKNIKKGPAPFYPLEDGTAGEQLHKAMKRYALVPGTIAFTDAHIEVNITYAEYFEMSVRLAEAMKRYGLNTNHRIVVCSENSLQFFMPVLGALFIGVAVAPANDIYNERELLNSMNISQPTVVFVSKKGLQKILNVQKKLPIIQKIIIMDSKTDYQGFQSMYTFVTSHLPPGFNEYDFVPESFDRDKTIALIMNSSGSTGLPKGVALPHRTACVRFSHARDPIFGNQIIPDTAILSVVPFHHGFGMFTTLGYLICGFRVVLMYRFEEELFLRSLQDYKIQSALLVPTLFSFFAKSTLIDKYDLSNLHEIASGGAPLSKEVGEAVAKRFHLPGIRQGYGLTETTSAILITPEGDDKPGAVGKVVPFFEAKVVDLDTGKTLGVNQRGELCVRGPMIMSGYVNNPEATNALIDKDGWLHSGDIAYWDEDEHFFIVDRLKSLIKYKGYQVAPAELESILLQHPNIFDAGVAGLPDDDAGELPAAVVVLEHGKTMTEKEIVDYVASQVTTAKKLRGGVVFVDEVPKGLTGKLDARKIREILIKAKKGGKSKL
Description: biochemical. To be noted: enzyme activity, 10 uM ATP; read-out: IC50 or SDR50 (mM) / FLuc E.
For the compound `COc1cc(C)ccc1OCc1cc(C(=O)NCc2n[nH]c3c2CCC3)no1` [NCGC00433000-01], the IC50 stood at 12.4 µM. Take `COc1ccc(N2CCN(C(=O)Cn3cccc3-c3nc(-c4ccc5c(c4)OCO5)no3)CC2)cc1` [NCGC00445315-01]: the IC50 is above 30 µM.

`CC(Oc1ccccc1F)C(=O)Nc1ccc(-c2nc3ccccc3s2)cc1` (centres unmarked) [NCGC00119149-01]: the IC50 is 8.81 µM. For `Cc1ccc(-n2ncc3c(NC4CCCCC4)ncnc32)cc1Cl` [NCGC00139149-01], the IC50 came out at 2.79 µM.

On to `COc1cccc(Nc2nc(-c3ccccc3)no2)c1` [NCGC00422289-01], for which the IC50 amounted to 6.24 µM. As to `COc1ccc(-c2nc3ccccc3s2)cc1NC(C)=O` [NCGC00141118-01], the IC50 is 6.24 µM. In the case of `Cc1ccc2oc(C(=O)Nc3cccc(-c4nc5ccccc5s4)c3)c(C)c2c1` [NCGC00119185-01], the IC50 stood at 9.89 µM. As to `CCN1c2cc(C(=O)Nc3ccc4c(c3)OCCO4)ccc2C(=O)N2CCCCC21` (centres unmarked) [NCGC00452503-01], the IC50 was 9.89 µM. For the compound `CCc1ccc(NC(=O)N2CCCC(c3noc(COc4ccccc4)n3)C2)cc1` (centres unmarked) [NCGC00475587-01], the IC50 is 2.79 µM.

Consider `O=C(Nc1cc(-c2nc3ccccc3s2)ccc1Cl)c1cc2ccccc2o1` [NCGC00098905-01], for which the IC50 was above 30 µM.

Take `O=C(Cc1cccc(F)c1)N1CC(Oc2ccc(-c3nc(-c4ccccc4)no3)cc2)C1` [NCGC00441157-01]: the IC50 is 12.4 µM.

In the case of `O=C(O)c1ccc(-c2noc(-c3ccccc3Cl)n2)cc1` [NCGC00168099-01], the IC50 is 1.11 µM. With `Cc1noc(C)c1CC(=O)N1CCOc2c(cc(-c3nc4ccccc4s3)cc2OC2CCOC2)C1` (centres unmarked) [NCGC00239833-01], the IC50 is above 30 µM. `CN1CCN(c2ccc(-c3cc4c(ccn4C)c(C(=O)NCCc4ccccn4)n3)cc2)CC1` [NCGC00411712-01]: the IC50 is 2.79 µM.

Consider `Cc1ccc(-c2cccc(COc3cnc4c(ccn4CC(=O)O)c3)c2)cc1C` [NCGC00418247-01], for which the IC50 amounted to 18 µM. On to `CN1c2cc(C(=O)Nc3ccccc3)ccc2C(=O)N2CCCCCC21` (centres unmarked) [NCGC00452190-01], for which the IC50 was found to be 11.1 µM. For `COc1ccc2cc(C3CN(C(=O)Cc4ccc(O)cc4)CCO3)ccc2c1` (centres unmarked) [NCGC00430869-01], the IC50 was 9.89 µM. For the compound `COc1cccc(-n2nnc(-c3nc(-c4ccccc4F)no3)c2C)c1` [NCGC00128608-01], the IC50 amounted to 5.56 µM. Turning to `COc1cc(OC)cc(C(=O)Nc2ccc(-c3nc4ccccc4s3)cc2C)c1` [NCGC00103060-01], the IC50 is above 30 µM. With `COc1cccc(-c2cccc(COc3cnc4c(ccn4CC(=O)O)c3)c2)c1F` [NCGC00418177-01], the IC50 amounted to 12.8 µM. Turning to `COc1ccc(-c2nc3ncccc3[nH]2)cc1` [NCGC00375673-01], the IC50 came to 16 µM. Turning to `COc1ccc(-c2cc3c(=O)n(CCNC(=O)c4cccc(N(C)C)c4)ccn3n2)cc1` [NCGC00456929-01], the IC50 came to 3.51 µM.

Take `COc1ccccc1-c1nc(-c2cccc(C(=O)O)c2)no1` [NCGC00168765-01]: the IC50 was 0.00624 µM.

For `Cc1cccc(NC(=O)c2cc(-c3ccc4c(c3)OCCO4)on2)c1` [NCGC00118828-01], the IC50 stood at 0.442 µM. Regarding `O=C(Nc1ccccc1)N1CC(Oc2ccc(-c3nc(-c4ccccc4)no3)cc2)C1` [NCGC00441117-01], the IC50 came out at 11.1 µM. Under `CCOC(=O)c1ccc(NC(=O)CSc2nnc(CNC(=O)c3ccc(OC)cc3)n2CC)cc1` [NCGC00110413-01] stands 12.4 µM. Consider `Nc1cccc(-c2ccc(N3CCCCC3)nn2)c1` [NCGC00432709-01], for which the IC50 stood at 0.556 µM. On to `Cc1c(-c2ccccc2F)[nH]c2ccc(CNC(=O)CC3CCC(=O)N3)cc12` (centres unmarked) [NCGC00425710-01], for which the IC50 stood at 9.89 µM. For `CCOc1ccc(C(=O)Nc2ccc(-c3nc4ccccc4s3)c(C)c2)cc1OCC` [NCGC00137842-01], the IC50 was above 30 µM. Under `COc1ccc(NC(=O)c2cc3ccccc3o2)c(OC)c1` [NCGC00141077-01] stands 4.95 µM; under `Cc1cccc(C(=O)Nc2nc3c(s2)CCCC3)c1` [NCGC00118410-01], 2.48 µM; under `Cc1ccc(NC(=O)Nc2ccc(C)n(CC(=O)N3CCC(C)CC3)c2=O)cc1` [NCGC00430800-01], 3.94 µM.

Regarding `CCc1ccc(Nc2nc(-c3ccccc3F)no2)cc1` [NCGC00422308-01], the IC50 is 6.24 µM. With `Nc1ccc(-c2nc3ccccc3s2)cc1` [NCGC00165328-03], the IC50 stood at 1.76 µM. With `Nc1nc2c(nc(S)n2[C@@H]2O[C@H](CO)[C@@H](O)[C@H]2O)c(=O)[nH]1` [NCGC00096124-01] the figure was 2.48 µM; with `Cc1cn2nc(C(=O)NCCc3ccccc3)cc2c(=O)[nH]1` [NCGC00453944-01], 11.1 µM.

On to `Cc1cn2c(=O)cc(COC(=O)c3cccc(NC(=O)COc4ccccc4Cl)c3)nc2s1` [NCGC00130619-01], for which the IC50 was 7 µM. For the compound `O=C1c2cnc(-c3ccsc3)nc2OCCN1c1ccccc1` [NCGC00413608-01], the IC50 was 18 µM. Under `COc1ccc(-c2nc3cc(F)ccc3s2)cc1OC` [NCGC00344018-01] stands 1.57 µM; under `O=C(Nc1ccc2oc(-c3ccccc3F)nc2c1)c1ccccc1Cl` [NCGC00098974-01], 5.56 µM. As for `O=C(COc1ccccc1Cl)Nc1ccc(-c2nc3ccccc3s2)cc1` [NCGC00098726-01], the IC50 was above 30 µM.

With `O=C1CC2(CCN(CC3CC3)CC2)Oc2cc(Cl)ccc21` [NCGC00476866-01], the IC50 stood at 18 µM.

For the compound `O=C(CSc1ccc(F)cc1)Nc1ccccc1-c1nc2ccccc2s1` [NCGC00274247-01], the IC50 is above 30 µM. Take `Cc1ccc(NC(=O)N2CCC(CCNC(=O)C3CC3)CC2)cc1F` [NCGC00425057-01]: the IC50 came to 11.1 µM. Turning to `Cc1cc(C)n(CCC(=O)N2CCC(Cc3noc(C4CC4)n3)C2)n1` (centres unmarked) [NCGC00443208-01], the IC50 was above 30 µM. Turning to `Cc1ccc(Cl)cc1-n1nnc(-c2nsc(NC(=O)c3ccccc3Cl)n2)c1C` [NCGC00105211-01], the IC50 is above 30 µM. Under `COc1ccc(-c2cnc(Nc3ccccc3)c3c2CCO3)cn1` [NCGC00412779-01] stands 18 µM; under `CCC(=O)Nc1cc2nn(-c3ccc(C)cc3)nc2cc1C` [NCGC00098511-01], 0.394 µM; under `Cc1ccc2nc(-c3ccc(NC(=O)c4ccccc4S(C)(=O)=O)cc3)sc2c1` [NCGC00141658-01], 11.1 µM. Turning to `CN1CCOc2nc(-c3ccc(Oc4ccccc4)cc3)ncc2C1=O` [NCGC00413560-01], the IC50 stood at 16.1 µM. As for `COc1ccc(C(=O)Nc2cc(-c3nc4ccccc4s3)ccc2OC)cc1` [NCGC00103028-01], the IC50 came out at 9.89 µM. For `COc1cccc(CN2CCc3nc(Nc4ccc5c(c4)OCCO5)ncc3C2)c1` [NCGC00131180-01], the IC50 amounted to 11.1 µM. Under `O=C(Nc1cccc(-c2nc3ccccc3s2)c1)N1CCC(O)C1` (centres unmarked) [NCGC00638360-01] stands 8.81 µM; under `COc1ccc(-c2ncc3c(n2)OCCN(c2ccccc2)C3=O)cc1F` [NCGC00413523-01], 3.21 µM. `CCc1ccc2oc(-c3ccc(C)c(NC(=O)c4ccc(C#N)cc4F)c3)nc2c1` [NCGC00103160-01]: the IC50 is above 30 µM. In the case of `CC(C)c1nc2c(c(-c3ccc(O)cc3)n1)CN(Cc1ccccc1)CC2` [NCGC00480075-01], the IC50 is above 30 µM. As to `Cc1ccc(-c2nc(-c3ccccc3)no2)c(Cl)c1` [NCGC00085930-01], the IC50 is 0.197 µM. `COc1ccc(OC)c(CN2CCOc3ccc(C(=O)NCc4ccc(C)cc4)cc3C2)c1` [NCGC00426332-01]: the IC50 is above 30 µM. In the case of `O=C(Nc1c(C(=O)Nc2ccc(F)cc2)oc2ccccc12)c1cc2ccccc2o1` [NCGC00111604-01], the IC50 is 7.85 µM. For `O=C1NCCCCCCN(C(=O)Nc2ccc3c(c2)OCCO3)[C@H]2CCC[C@@H]12` [NCGC00465105-01], the IC50 was 3.51 µM. For the compound `COc1ccc(NC(=O)/C(C#N)=C/c2ccc(C)o2)cc1` [NCGC00099040-01], the IC50 is 6.24 µM. With `c1ccc(COc2ccc(CN3CCSCC3)cc2)nc1` [NCGC00446150-01], the IC50 was determined as 12.4 µM. Turning to `COc1ccc(-c2cc(N3CCCC(NC(=O)c4ccc5[nH]ccc5c4)C3)[nH]n2)cc1` (centres unmarked) [NCGC00437714-01], the IC50 was found to be 4.95 µM. On to `COc1ccc(-c2cc3c(=O)n(CCNC(=O)c4ccco4)ccn3n2)cc1` [NCGC00456922-01], for which the IC50 was 9.89 µM. Take `COc1ccc(Br)cc1C(=O)Nc1nc2ccc(F)cc2s1` [NCGC00102907-01]: the IC50 was above 30 µM. Turning to `c1ccc(CNc2nc(-c3ccccc3)no2)cc1` [NCGC00422290-01], the IC50 was 17.6 µM.

As to `CC(=O)NC1(C)CN(Cc2ccc(-c3ccc4c(ccn4C)c3)s2)C1` [NCGC00410429-01], the IC50 amounted to 2.86 µM.

As for `O=C(Nc1cccc(-c2ccc(N3CCOCC3)nn2)c1)Nc1cccc(C(F)(F)F)c1` [NCGC00427594-01], the IC50 is 4.95 µM. For the compound `Cc1ccc2oc(-c3ccc(C)c(NC(=O)/C=C/c4ccc(Cl)cc4)c3)nc2c1` [NCGC00103154-01], the IC50 stood at 11.1 µM.

On to `CN(C)c1ccc(-c2nc(C3CCOC3)no2)cc1` (centres unmarked) [NCGC00447436-01], for which the IC50 was 9.89 µM.

Take `CC(=O)N1CCNc2cc(Nc3cccc(N(C)C)c3)ncc2C1` [NCGC00411238-01]: the IC50 was found to be 16.1 µM. As to `CCCCC(=O)Nc1cc(-c2nc3ccccc3s2)ccc1C` [NCGC00596082-01], the IC50 was above 30 µM.

As for `COc1cccc(CN2CCc3nc(C(=O)Nc4nc(C)cs4)oc3CC2)c1` [NCGC00413306-01], the IC50 was 18 µM. Under `O=C(c1ccc(CSc2nc3ccncc3n2Cc2ccccc2F)cc1)N1CCCCC1` [NCGC00113496-01] stands 14 µM; under `O=C(Nc1cccc(F)c1)Nc1cccc(-c2ccc(N3CCCCC3)nn2)c1` [NCGC00427644-01], 0.989 µM.

For `COc1ccc(-c2nc3ccccc3s2)cc1NC(=O)c1cc2ccccc2o1` [NCGC00102103-01], the IC50 is above 30 µM. Consider `CC(=O)c1ccc(N[S+](=O)([O-])c2cccc([S+](=O)([O-])c3ccc(Cl)cc3)c2)cc1` [NCGC00098154-01], for which the IC50 was above 30 µM.

The record behind these values is article PMC12064818, “A general assay platform to study protein pharmacology using ligand-dependent structural dynamics” (Nature Communications, 2025).
